This is an account of results in patent US10722514B2 (FLX Bio, Inc., priority 2017, dated 2020).

Molecules are shown by their SMILES. Where a name gives a salt, the structure may show the parent alone.

One assay deals with T1, recombinant full-length USP7 (Homo sapiens, UniProt Q93009).
T1 construct: A 25 μl reaction volume containing recombinant full-length USP7 (62 pM)
T1 sequence (Q93009 whole entry): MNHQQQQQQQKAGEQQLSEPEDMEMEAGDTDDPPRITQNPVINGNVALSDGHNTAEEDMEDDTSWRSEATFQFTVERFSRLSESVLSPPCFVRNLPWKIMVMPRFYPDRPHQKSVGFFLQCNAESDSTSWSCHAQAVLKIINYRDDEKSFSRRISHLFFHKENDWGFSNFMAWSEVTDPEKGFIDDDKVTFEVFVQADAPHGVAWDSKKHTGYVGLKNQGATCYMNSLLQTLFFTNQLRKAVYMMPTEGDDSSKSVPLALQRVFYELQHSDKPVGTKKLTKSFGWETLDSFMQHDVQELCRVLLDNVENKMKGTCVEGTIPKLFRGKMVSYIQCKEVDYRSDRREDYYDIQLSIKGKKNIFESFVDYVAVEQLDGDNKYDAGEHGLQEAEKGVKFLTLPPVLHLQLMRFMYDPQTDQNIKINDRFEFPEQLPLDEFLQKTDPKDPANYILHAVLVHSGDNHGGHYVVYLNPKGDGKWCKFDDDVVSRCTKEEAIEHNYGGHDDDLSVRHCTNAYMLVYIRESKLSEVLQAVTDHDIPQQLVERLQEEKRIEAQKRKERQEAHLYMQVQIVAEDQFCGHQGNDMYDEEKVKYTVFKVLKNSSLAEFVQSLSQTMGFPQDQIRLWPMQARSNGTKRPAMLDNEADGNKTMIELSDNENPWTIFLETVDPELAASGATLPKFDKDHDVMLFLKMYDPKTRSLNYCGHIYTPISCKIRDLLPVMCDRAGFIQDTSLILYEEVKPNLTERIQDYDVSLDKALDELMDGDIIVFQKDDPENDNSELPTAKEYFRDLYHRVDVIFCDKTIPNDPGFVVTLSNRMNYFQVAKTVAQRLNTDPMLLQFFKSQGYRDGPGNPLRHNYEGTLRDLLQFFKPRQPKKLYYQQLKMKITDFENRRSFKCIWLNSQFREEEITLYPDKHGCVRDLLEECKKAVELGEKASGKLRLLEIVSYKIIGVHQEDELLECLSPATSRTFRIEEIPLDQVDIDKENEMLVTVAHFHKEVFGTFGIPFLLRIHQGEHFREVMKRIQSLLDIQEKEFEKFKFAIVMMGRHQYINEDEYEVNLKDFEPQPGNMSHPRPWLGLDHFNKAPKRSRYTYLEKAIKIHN
The assay can be described thus: USP7-mediated ubiquitin-rhodamine cleavage assay. In kind it is biochemical. The settings on record: recombinant full-length USP7 62 pM; ubiquitin-rhodamine 100 nM; 30-minute incubation with compound, 1 hour reaction at room temperature; read-out: Potency: USP7 IC50. In short, it runs like this: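 Rhodamine fluorescence read-out after acetic acid stop; IC50 by 4-parameter nonlinear regression. Enzyme at 62 pM, substrate ubiquitin-rhodamine 100 nM final, 1 h at room temperature in the dark, after 30 min compound preincubation. Buffer: HEPES pH 7.3, NaCl, TCEP, BSA; 1% DMSO.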
Regarding `Cc1cc(Cl)cc(-c2ccnc3cc(Cn4c(=O)ccn(CC(F)(F)F)c4=O)sc23)c1OC1CCNCC1C(F)(F)F` (stereo not shown) [Example 272, 3-((7-(5-Chloro-3-methyl-2-((3-(trifluoromethyl)piperidin-4-yl)oxy)phenyl)thieno[3,2-b]pyridin-2-yl)methyl)-1-(2,2,2-trifluoroethyl)pyrimidine-2,4(1H,3H)-dione], the IC50 was less than 1000 nM.
For the compound `CCc1cc(Cl)cc(-c2ccnc3cc(CO)sc23)c1OCC1CNC1` [Example 22, (7-(2-(Azetidin-3-ylmethoxy)-5-chloro-3-ethylphenyl)thieno[3,2-b]pyridin-2-yl)methanol], the IC50 fell in the range of 1000 to 10000 nM.
For `Cc1cc(Cl)cc(-c2ccnc3cc(Cn4c(=O)ccn(CC(F)(F)F)c4=O)sc23)c1O[C@H]1C[C@H](N)C1` [Example 277, 3-((7-(2-((1r,3r)-3-Aminocyclobutoxy)-5-chloro-3-methylphenyl)thieno[3,2-b]pyridin-2-yl)methyl)-1-(2,2,2-trifluoroethyl)pyrimidine-2,4(1H,3H)-dione], the 50% inhibitory concentration (IC50) is less than 1000 nM.
Take `Cc1cc(Cl)cc(-c2ncnc3cc(CN4C(=O)CCCC4=O)sc23)c1OC1CCNCC1` [Example 259, 1-((4-(5-Chloro-3-methyl-2-(piperidin-4-yloxy)phenyl)thieno[3,2-d]pyrimidin-6-yl)methyl)piperidine-2,6-dione]: the IC50 is 1000 to 10000 nM.
For `Cc1cc(Cl)cc(-c2ncnc3cc(Cn4c(=O)ccn(C)c4=O)sc23)c1O[C@H]1CCCNC1` [Example 251, (S)-3-((4-(5-Chloro-3-methyl-2-(piperidin-3-yloxy)phenyl)thieno[3,2-d]pyrimidin-6-yl)methyl)-1-methylpyrimidine-2,4(1H,3H)-dione], the IC50 was less than 1000 nM.
For the compound `Cc1cc(Cl)cc(-c2ccnc3cc(CN4C(=O)C5C(C4=O)C5(C)C)sc23)c1O[C@@H]1CCNC[C@@H]1C` (stereo partly drawn) [Example 366, 3-[[7-[5-chloro-3-methyl-2-[[(3S,4R)-3-methyl-4-piperidyl]oxy]phenyl]thieno[3,2-b]pyridin-2-yl]methyl]-6,6-dimethyl-3-azabicyclo[3.1.0]hexane-2,4-dione dihydrochloride], the IC50 is less than 1000 nM.
On to `Cc1cc(Cl)cc(-c2ccnc3cc(CO)sc23)c1O[C@@H]1CNC[C@@H]1C` [Example 56, (7-(5-Chloro-3-methyl-2-(((3S,4S)-4-methylpyrrolidin-3-yl)oxy)phenyl)thieno[3,2-b]pyridin-2-yl)methanol], for which the concentration for half-maximal inhibition (IC50) is 1000 to 10000 nM.
As for `CCC(O)c1cc2nccc(-c3cc(Cl)cc(C)c3OCC3(F)CNC3)c2s1` (stereo not shown) [Example 35, 1-(7-(5-Chloro-2-((3-fluoroazetidin-3-yl)methoxy)-3-methylphenyl)thieno[3,2-b]pyridin-2-yl)propan-1-ol], the half-inhibitory concentration (IC50) lay within 1000 to 10000 nM.
With `Cc1cc(Cl)cc(-c2ncnc3cc(CN4C(=O)C5CC5C4=O)sc23)c1O[C@H]1CCCNC1` (stereo partly drawn) [Example 245, 3-((4-(5-Chloro-3-methyl-2-(((S)-piperidin-3-yl)oxy)phenyl)thieno[3,2-d]pyrimidin-6-yl)methyl)-3-azabicyclo[3.1.0]hexane-2,4-dione], the 50% inhibitory concentration (IC50) was less than 1000 nM.
`Cc1cc(Cl)cc(-c2ncnc3cc(CN4C(=O)C5C(C4=O)C5(C)C)sc23)c1O[C@@H]1CNCC[C@@H]1C` (stereo partly drawn) [Example 350, 3-[[4-[5-chloro-3-methyl-2-[[(3S,4S)-4-methyl-3-piperidyl]oxy]phenyl]thieno[3,2-d]pyrimidin-6-yl]methyl]-6,6-dimethyl-3-azabicyclo[3.1.0]hexane-2,4-dione]: the IC50 was less than 1000 nM.
The same measure, in the same setting: then `Cc1cc(Cl)cc(-c2ccnc3cc(Cn4c(=O)ccn(CC(F)(F)F)c4=O)sc23)c1O[C@@H]1CCN(C)C[C@@H]1C` [Example 273, 3-((7-(5-Chloro-2-(((3S,4R)-1,3-dimethylpiperidin-4-yl)oxy)-3-methylphenyl)thieno[3,2-b]pyridin-2-yl)methyl)-1-(2,2,2-trifluoroethyl)pyrimidine-2,4(1H,3H)-dione], with less than 1000 nM; and `Cc1cc(Cl)cc(-c2ccnc3cc(Cn4c(=O)ccn(CC(F)(F)F)c4=O)sc23)c1O[C@@H]1CCNC[C@H]1C` [Example 275, 3-((7-(5-Chloro-3-methyl-2-(((3R,4R)-3-methylpiperidin-4-yl)oxy)phenyl)thieno[3,2-b]pyridin-2-yl)methyl)-1-(2,2,2-trifluoroethyl)pyrimidine-2,4(1H,3H)-dione], with less than 1000 nM.

Still in this assay, the particulars now being: recombinant full-length USP7 62 pM; ubiquitin-rhodamine 100 nM; 30-minute incubation, 1 hour reaction at room temperature; read-out: Potency (USP7 IC50).
Regarding `Cc1cc(Cl)cc(-c2ccnc3cc(Cn4c(=O)ccn(CC(F)(F)F)c4=O)sc23)c1OC1COC1` [Example 671, 3-[[7-[5-chloro-3-methyl-2-(oxetan-3-yloxy)phenyl]thieno[3,2-b]pyridin-2-yl]methyl]-1-(2,2,2-trifluoroethyl)pyrimidine-2,4-dione], the half-inhibitory concentration (IC50) was less than 1000 nM.
As to `Cc1cc(Cl)cc(-c2ccnc3cc(Cn4c(=O)ccn(CC(F)(F)F)c4=O)sc23)c1O[C@H]1C[C@@H]2NCCO[C@@H]2C1` [Example 696, 3-[[7-[2-[[(4aS,6S,7aR)-2,3,4,4a,5,6,7,7a-octahydrocyclopenta[b][1,4]oxazin-6-yl]oxy]-5-chloro-3-methyl-phenyl]thieno[3,2-b]pyridin-2-yl]methyl]-1-(2,2,2-trifluoroethyl)pyrimidine-2,4-dione], the concentration for half-maximal inhibition (IC50) was less than 1000 nM.

The assay is the same for the next values; noted with them: recombinant full-length USP7 62 pM; ubiquitin-rhodamine 100 nM; 30-minute pre-incubation, 1 hour reaction at room temperature; read-out: Potency (USP7 IC50).
In the case of `Cc1cc(Cl)cc(-c2ccnc3cc(Cn4c(=O)ccn(C)c4=O)sc23)c1O[C@@H]1CC[C@@H](NCCO)C1` [Example 531, 3-[[7-[5-chloro-2-[(1R,3R)-3-(2-hydroxyethylamino)cyclopentoxy]-3-methyl-phenyl]thieno[3,2-b]pyridin-2-yl]methyl]-1-methyl-pyrimidine-2,4-dione; 2,2,2-trifluoroacetic acid], the half-inhibitory concentration (IC50) was less than 1000 nM.
Consider `Cc1cc(Cl)cc(-c2ncnc3cc(Cn4c(=O)ccn(CC(F)(F)F)c4=O)sc23)c1O[C@H]1CCCN(C)C1` [Example 521, 3-[[4-[5-chloro-3-methyl-2-[[(3S)-1-methyl-3-piperidyl]oxy]phenyl]thieno[3,2-d]pyrimidin-6-yl]methyl]-1-(2,2,2-trifluoroethyl)pyrimidine-2,4-dione], for which the half-inhibitory concentration (IC50) was less than 1000 nM.
`Cc1cc(Cl)cc(-c2ccnc3cc(Cn4c(=O)ccn(CC(F)(F)F)c4=O)sc23)c1O[C@H]1CC[C@H](C)NC1` [Example 598, 3-[[7-[5-chloro-3-methyl-2-[[(3S,6S)-6-methyl-3-piperidyl]oxy]phenyl]thieno[3,2-b]pyridin-2-yl]methyl]-1-(2,2,2-trifluoroethyl)pyrimidine-2,4-dione; 2,2,2-trifluoroacetic acid]: the IC50 is less than 1000 nM.
`CCN1CC2CC(Oc3c(C)cc(Cl)cc3-c3ccnc4cc(Cn5c(=O)ccn(C)c5=O)sc34)C1C2` (stereo not shown) [Example 466, 3-[[7-[5-chloro-2-[(3-ethyl-3-azabicyclo[2.2.1]heptan-5-yl)oxy]-3-methyl-phenyl]thieno[3,2-b]pyridin-2-yl]methyl]-1-methyl-pyrimidine-2,4-dione]: the 50% inhibitory concentration (IC50) was less than 1000 nM.
`Cc1cc(Cl)cc(-c2ccnc3cc(Cn4c(=O)ccn(CC(F)(F)F)c4=O)sc23)c1O[C@@H]1CNC[C@@H]1C(F)F` [Example 620, 3-[[7-[5-chloro-2-[(3S,4S)-4-(difluoromethyl)pyrrolidin-3-yl]oxy-3-methyl-phenyl]thieno[3,2-b]pyridin-2-yl]methyl]-1-(2,2,2-trifluoroethyl)pyrimidine-2,4-dione]: the 50% inhibitory concentration (IC50) was less than 1000 nM.
Still for that read-out and setting: the result for `Cc1cc(Cl)cc(-c2ccnc3cc(Cn4c(=O)ccn(C)c4=O)sc23)c1O[C@@H]1CN(CCO)C[C@@H]1F` [Example 467, 3-[[7-[5-chloro-2-[(3R,4S)-4-fluoro-1-(2-hydroxyethyl)pyrrolidin-3-yl]oxy-3-methyl-phenyl]thieno[3,2-b]pyridin-2-yl]methyl]-1-methyl-pyrimidine-2,4-dione; 2,2,2-trifluoroacetic acid] reads less than 1000 nM; that for `Cc1cc(Cl)cc(-c2ccnc3cc(Cn4c(=O)ccn(C)c4=O)sc23)c1O[C@H]1CCCN(CCO)CC1` [Example 494, 3-[[7-[5-chloro-2-[(4S)-1-(2-hydroxyethyl)azepan-4-yl]oxy-3-methyl-phenyl]thieno[3,2-b]pyridin-2-yl]methyl]-1-methyl-pyrimidine-2,4-dione], less than 1000 nM.
Same read-out and setting: the result for `Cc1cc(Cl)cc(-c2ccnc3cc(Cn4c(=O)ccn(C(C)C)c4=O)sc23)c1O[C@H]1CCNC[C@@H]1F` [Example 563, 3-[[7-[5-chloro-2-[[(3S,4S)-3-fluoro-4-piperidyl]oxy]-3-methyl-phenyl]thieno[3,2-b]pyridin-2-yl]methyl]-1-isopropyl-pyrimidine-2,4-dione] reads less than 1000 nM; that for `COCCN1C[C@H](C)[C@H](Oc2c(C)cc(Cl)cc2-c2ccnc3cc(Cn4c(=O)ccn(CC(F)(F)F)c4=O)sc23)C1` [Example 645, 3-[[7-[5-chloro-2-[(3S,4S)-1-(2-methoxyethyl)-4-methyl-pyrrolidin-3-yl]oxy-3-methyl-phenyl]thieno[3,2-b]pyridin-2-yl]methyl]-1-(2,2,2-trifluoroethyl)pyrimidine-2,4-dione], less than 1000 nM; that for `COCCN1CC[C@@H](Oc2c(C)cc(Cl)cc2-c2ccnc3cc(Cn4c(=O)ccn(CC(F)(F)F)c4=O)sc23)[C@H](C)C1` [Example 654, 3-[[7-[5-chloro-2-[[(3R,4R)-1-(2-methoxyethyl)-3-methyl-4-piperidyl]oxy]-3-methyl-phenyl]thieno[3,2-b]pyridin-2-yl]methyl]-1-(2,2,2-trifluoroethyl)pyrimidine-2,4-dione], less than 1000 nM.
As to `Cc1cc(Cl)cc(-c2ccnc3cc(Cn4c(=O)c(F)cn(CC(F)(F)F)c4=O)sc23)c1O[C@H]1CCCNC1` [Example 555, 3-[[7-[5-chloro-3-methyl-2-[[(3S)-3-piperidyl]oxy]phenyl]thieno[3,2-b]pyridin-2-yl]methyl]-5-fluoro-1-(2,2,2-trifluoroethyl)pyrimidine-2,4-dione], the IC50 is less than 1000 nM.

Broadly, the IC50 is the concentration at which inhibition is half-maximal.
